Measured values from US8222296B2, “Conjugates comprising a GABA- or glycine compound, pharmaceutical compositions and combinations thereof and their use in treating CNS disorders” (Ramot at Tel-Aviv University Ltd., priority 2006, dated 2012).
Counter-ions that a name gives are not always drawn.

Legend:
[1] = Water content (Karl-Fisher titration) after sitting uncapped on the bench overnight; type: physicochemical; settings: 0.15% vs. 0.16%
Method: Water content was measured using Karl-fisher titration.

[2] = Stability of BIL-1022 in water and methanol; type: physicochemical; settings: low pH (3-5), room temperature (20-25° C.)
Method: The stability of BIL-1022 was briefly studied. BIL-1022 is stable in water and methanol at low pH (3-5) at room temperature (20-25° C.).

- water content of the product upon sitting in vial (uncapped) on the bench overnight [1]: remained substantially unchanged
- stability in water and methanol [2]: stable
Compound: CC(=O)Nc1ccc(OC(=O)CCCN)cc1 [BIL-1022, 4-acetamidophenyl 4-aminobutanoate hydrochloride]
